# Experimental data from US12274689B2, “Compound for the management of feline diabetes” (INCREVET, INC., priority 2019, dated 2025).
# Tested on: client-owned cats diagnosed with diabetes mellitus
# Assay: field effectiveness study in client-owned diabetic cats
# Type: in vivo, cat
# Design: mean serum glucose: unit: mg/dL
# Protocol: In a field effectiveness study, client-owned cats that had been diagnosed with diabetes mellitus based on: i) two separate fasting (≥6 h) blood glucose measurements>250 mg dL^−1; ii) glucosuria; iii) fructosamine>450 μmol L^−1 (subsequently changed to >360 μmol L^−1 due to a change in the testing laboratory methodology), and iv) one or more of the following: polyuria/polydipsia, polyphagia and/or weight loss (documented in the cat's medical records) were enrolled. Cats with suspected diabetes mellitus were evaluated during visit 1 (within 7 days prior to day 0). […] Cats were prescribed a diet for diabetic animals (Purina DM, either dry or wet variety). Cats were returned to the clinic for evaluation of glycemic control during visits 3 (day 14±3), 4 (day 28±3), and 5 (day 56±3). The treatment period was from visit 2 (day 0) through visit 5 (day 56±3). A cat could have been brought back to the clinic at any time for unscheduled visits if such visits were determined to be necessary by the owner or investigator. Eight-hour blood glucose curves (blood samples collected every 2 h±15 min for 8 h) were conducted at every visit starting with visit 2 (day 0) and blood glucose was measured using an AlphaTRAK 2 glucometer (Abbott Laboratories). Blood samples for hematology and serum chemistry were collected at screening and during each scheduled visit after initiation of dosing. A central laboratory was used to evaluate all clinical pathology samples (blood, serum, and urine) that are not analyzed in the clinic for blood glucose curves.
# Serum chemistries included assessment of fructosamine. […] To accommodate the change in reference range, data were harmonized by expression as a percentage of the upper limit of normal and log-transformed percentages were analyzed by repeated measures ANCOVA with an unstructured covariance and visit as a fixed effect. The upper limit of normal for the testing laboratory for fasting serum glucose was 155 mg dL^−1. The data below were tabulated after 32 cats completed the day 56 visit.
# Each cat was classified as having achieved (or not achieved) glycemic control on Day 56±3 (success/failure). Treatment success was defined as improvement of at least one blood glucose variable (BG mean<250 mg dL^−1; or fructosamine<450 μmol/L or <360 μmol/L, depending on the assay reference range at the time of the analysis), and the veterinarian's assessment of adequate glycemic control at the final evaluation. All cats that remained on-study to V5 were considered treatment successes. Of the 8 cats that were considered treatment failures, 6 cats were removed from the study following an SAE, 1 cat was removed at the sponsor's request, and 1 cat was removed due to the use of a study-proscribed medication to treat an AE. Table 3 also tallies the cats achieving a fructosamine concentration less than the upper limit of normal (356 μmol L^−1 initially and 275 μmol L^−1 subsequently).
# Responsibility for assessing clinical signs of diabetes mellitus was divided between owners and treating veterinarians. Weight was recorded at each visit by the veterinarian, and the signs of polydipsia, polyuria and polyphagia were recorded at each visit by the owner, using a four-point (0 to 3) integer score in which low scores represented favorable ratings.
# In addition to providing a measure of the status of the cat as a function of time, the quantitative assessments were used to produce a binary outcome of success or failure at study completion. To score as a success by weight, the weight at Visit 5 was to exceed the weight at Visit 2 (treatment initiation). To score as success by the other signs the owner score at visit 5 was to be less than the owner score at Visit 2.
# Glucose curves were constructed by glucometer measurement of blood sampled at hours 0, 2, 4, 6 and 8 post-dose. […]
# [1] = by visit, non-parametric test highly significant
structure (smiles),measurement,setting,value
"OC[C@H]1O[C@@H](c2ccc(Cl)c(Cc3ccc(OCCOC4CC4)cc3)c2)[C@H](O)[C@@H](O)[C@@H]1O [bexagliflozin, (2S,3R,4R,5S,6R)-2-(4-chloro-3-(4-(2-cyclopropoxyethoxy)benzyl)phenyl)-6-(hydroxymethyl)tetrahydro-2H-pyran-3,4,5-triol]",treatment effect on the gain in body mass per cat,"baseline to week 8, p<0.0001",highly significant
same,cats that either maintained or increased their weight,by day 56,82%
same,mean owner scores for polydipsia,[1],declined
same,mean owner scores for polyuria,[1],declined
same,mean owner scores for polyphagia,"by visit, non-parametric test significant",declined
same,weight of case 5 at study end,"case 5, decreased from 5.4 kg",5.1 kg
same,treatment outcome of cats with IGF-1 above the upper limit of normal (92 nmol/L),"cases 7, 28 and 30, V5",All three cases were considered treatment successes
same,symptomatic hypoglycemia,"diabetic cats, field study",None of the cats exhibited a symptomatic hypoglycemia
same,Veterinarian Glycemic Control Criteria Met,"individual cats, V5",Yes
same,Mean BG Criteria Met,"individual cats, V5, BG mean <250 mg dL^−1",Yes
same,cats removed from the study following an SAE,of 40 cats enrolled,6 cats
same,"Any Success, Col Sum (number of cats)",of 40 enrolled cats,31
same,"Non-Weight Success, Col Sum (number of cats)",of 40 enrolled cats,30
same,"Polydipsia Success, Col Sum (number of cats)",of 40 enrolled cats,23
same,"Polyphagia Success, Col Sum (number of cats)",of 40 enrolled cats,17
same,"Polyuria Success, Col Sum (number of cats)",of 40 enrolled cats,24
same,"Weight Success, Col Sum (number of cats)",of 40 enrolled cats,22
same,cats achieving a fructosamine concentration below the upper limit of normal,of the 32 cats completing the study,26 cats
same,average cat weight,over the course of the study,increased
same,cats considered treatment successes,"thirty-two of the 40 cats enrolled, Day 56±3",80%
same,fructosamine of cats with elevated IGF-1,three cats with elevated serum IGF-1,achieved a normal fructosamine concentration
same,mean serum β-hydroxybutyrate concentration,"week 8, 95% CI 1.40, 2.20, upper limit of normal 1.9 mg dL^−1",1.76 mg/dL
same,"mean serum fructosamine, % of the upper limit of normal","week 8, 95% CI 80.0%, […]",86.7%
same,mean serum glucose,"week 8, 95% CI 127, 163",144
same,mean of the five blood glucose determinations,"week 8, in-clinic blood glucose curve, 95% CI 102.8, 128.4",114.9 mg/dL
